In patent US7109193B2, “Tricyclic diazepines tocolytic oxytocin receptor antagonists” (Wyeth, priority 2001, dated 2006):

Target: T1, human vasopressin V2 receptor subtype (Homo sapiens, UniProt P30518)
T1 construct: host or cells: CHO cells (pZeoSV vector)
Assay: Vasopressin binding in Chinese Hamster Ovary cell membranes expressing human vasopressin V2 subtype receptors
Details: 100 nM, CHO cell membranes, [3H]arginine vasopressin, values without parentheses
Outline: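 Radioligand displacement on membranes from CHO cells stably expressing human V2 receptor, 25 to 50 μg protein/well, in 50 mM Tris-HCl pH 7.4 with MgCl2, BSA and protease inhibitors. [^3H]arginine vasopressin (8 nM working solution) incubated 60 min at room temperature; bound label measured by filtration and scintillation counting.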

T1 sequence (P30518 whole entry): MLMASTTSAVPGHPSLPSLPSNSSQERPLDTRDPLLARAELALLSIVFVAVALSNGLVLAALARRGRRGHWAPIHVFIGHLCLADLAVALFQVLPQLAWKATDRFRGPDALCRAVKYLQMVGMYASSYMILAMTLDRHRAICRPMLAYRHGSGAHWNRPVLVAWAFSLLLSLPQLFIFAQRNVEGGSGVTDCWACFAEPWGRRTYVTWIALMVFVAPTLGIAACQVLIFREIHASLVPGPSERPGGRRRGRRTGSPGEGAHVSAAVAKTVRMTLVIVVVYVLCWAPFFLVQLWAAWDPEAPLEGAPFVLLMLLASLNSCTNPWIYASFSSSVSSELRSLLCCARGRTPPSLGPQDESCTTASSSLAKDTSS

inhibition at 0.1 µM [%] | Structure (SMILES)
16 | COc1cccc(-c2cc(OC)c(C(=O)N3Cc4ccc(C(=O)N5CCN(C(C)C)CC5)n4Cc4ccccc43)cc2Cl)c1 [Example 239, {10-[(6-Chloro-3,3′-dimethoxy[1,1′-biphenyl]-4-yl)carbonyl]-10,11-dihydro-5H-pyrrolo[2,1-c][1,4]benzodiazepin-3-yl}(4-isopropyl-1-piperazinyl)methanone]
17 | CN1CCCC1CCNC(=O)c1ccc2n1Cc1ccccc1N(C(=O)c1ccc(-c3cccc4ccccc34)cc1Cl)C2 (stereo not shown) [Example 173, 10-[2-Chloro-4-(1-naphthyl)benzoyl]-N-[2-(1-methyl-2-pyrrolidinyl)ethyl]-10,11-dihydro-5H-pyrrolo[2,1-c][1,4]benzodiazepine-3-carboxamide]
13 | Cc1ccccc1-c1ccc(C(=O)N2Cc3ccc(C(=O)NCCC4CCCN4C)n3Cc3ccccc32)cc1C (stereo not shown) [Example 163, 10-[(2,2′-Dimethyl[1,1′-biphenyl]-4-yl)carbonyl]-N-[2-(1-methyl-2-pyrrolidinyl)ethyl]-10,11-dihydro-5H-pyrrolo[2,1-c][1,4]benzodiazepine-3-carboxamide]
19 | COc1ccccc1-c1ccc(C(=O)N2Cc3ccc(C(=O)NCCN4CCCCC4)n3Cc3ccccc32)cc1OC [Example 158, 10-[(2,2′-Dimethoxy[1,1′-biphenyl]-4-yl)carbonyl]-N-[2-(1-piperidinyl)ethyl]-10,11-dihydro-5H-pyrrolo[2,1-c][1,4]benzodiazepine-3-carboxamide]
